According to ChEMBL document CHEMBL1201862, “PubChem BioAssay data set” (2004):
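In this assay, cells in 96-well plates receive the compound at five concentrations for 48 hours. Endpoints are linearly interpolated between the surrounding concentrations. Abbreviation: GI50, concentration required for 50% inhibition of growth.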 Activity calls are given as the source filed them. Cut-off read from the data, not from the text of the source: active = GI50 up to about 1.1 µM and inactive = higher.

Key:
Experiment in all cases: DTP human tumour cell line panel, 48 h
CAKI-1 = system: CAKI-1
IGROV-1 = system: IGROV-1
HCC 2998 = system: HCC 2998
HOP-62 = system: HOP-62
U-251 = system: U-251
OVCAR-3 = system: OVCAR-3
OVCAR-8 = system: OVCAR-8
SF-539 = system: SF-539
SNB-75 = system: SNB-75
ACHN = system: ACHN
A498 = system: A498
NCI-H522 = system: NCI-H522
TK-10 = system: TK-10
SF-268 = system: SF-268
KM12 = system: KM12
786-0 = system: 786-0
K562 = system: K562

Measured: GI50

S=c1sc2c(Cl)ncnc2n1-c1ccccc1
inactive: CAKI-1 4.88 µM | IGROV-1 15 µM | HCC 2998 17.1 µM | HOP-62 15.6 µM | U-251 16 µM | OVCAR-3 15.4 µM | OVCAR-8 16.1 µM | SF-539 16.3 µM | SNB-75 14 µM | ACHN 16.5 µM | A498 16.6 µM | NCI-H522 2.01 µM | TK-10 17.8 µM | SF-268 5.05 µM | KM12 17.2 µM | 786-0 15.1 µM

COc1cc2c(cc1OC)[C@H]1C(COC(=O)c3ccccc3)CS/C(=N/c3ccccc3)N1CC2 (some centres undefined)
inactive: CAKI-1 > 100 µM | IGROV-1 > 100 µM | HCC 2998 > 100 µM | HOP-62 > 100 µM | U-251 24.3 µM | OVCAR-3 > 100 µM | OVCAR-8 > 100 µM | SF-539 > 100 µM | SNB-75 27.7 µM | ACHN > 100 µM | A498 48.9 µM | NCI-H522 2.34 µM | TK-10 81.1 µM | SF-268 8.69 µM | KM12 > 100 µM | 786-0 > 100 µM

Cc1ccc(NCC(=O)N2CC(=O)Nc3ccccc32)c(C)c1
inactive: K562 > 100 µM | CAKI-1 > 100 µM | HCC 2998 > 100 µM | HOP-62 > 100 µM | U-251 > 100 µM | OVCAR-3 > 100 µM | OVCAR-8 > 100 µM | SF-539 > 100 µM | SNB-75 > 100 µM | ACHN > 100 µM | NCI-H522 > 100 µM | TK-10 > 100 µM | SF-268 > 100 µM | KM12 > 100 µM | 786-0 > 100 µM

N#CC(c1ccccc1)c1nc2ccc(N)cc2[n+]([O-])c1C(C#N)c1ccccc1 (centres undefined)
inactive: K562 44.5 µM | CAKI-1 69.8 µM | IGROV-1 > 100 µM | HOP-62 > 100 µM | U-251 59.6 µM | OVCAR-3 91.8 µM | OVCAR-8 56.4 µM | SF-539 > 100 µM | ACHN 58.1 µM | A498 > 100 µM | NCI-H522 46.9 µM | TK-10 > 100 µM | SF-268 > 100 µM | KM12 60.7 µM | 786-0 > 100 µM

O=c1[nH]cnc2c1nnn2C1C=C(CO)C(O)C1O (centres undefined)
inactive: K562 > 100 µM | CAKI-1 > 100 µM | IGROV-1 > 100 µM | HCC 2998 > 100 µM | HOP-62 > 100 µM | U-251 > 100 µM | OVCAR-3 > 100 µM | OVCAR-8 > 100 µM | SF-539 > 100 µM | SNB-75 > 100 µM | ACHN > 100 µM | A498 > 100 µM | TK-10 > 100 µM | SF-268 74.1 µM | KM12 > 100 µM | 786-0 > 100 µM

COC(=O)C(CCCCCCCC(C(=O)OC)C1=Nc2nnc(N)n2C1=O)C1=Nc2nnc(N)n2C1=O (centres undefined)
inactive: CAKI-1 11.2 µM | IGROV-1 > 100 µM | HCC 2998 > 100 µM | HOP-62 > 100 µM | U-251 > 100 µM | OVCAR-3 > 100 µM | OVCAR-8 94.8 µM | SF-539 84.3 µM | SNB-75 48.3 µM | ACHN > 100 µM | A498 > 100 µM | NCI-H522 > 100 µM | TK-10 > 100 µM | SF-268 > 100 µM | KM12 > 100 µM | 786-0 > 100 µM

CC(=O)O[C@H]1CCC2[C@@H]3CCC4=C(O)c5nocc5C[C@]4(C)C3CC[C@@]21C (some centres undefined)
inactive: K562 > 100 µM | CAKI-1 > 100 µM | IGROV-1 > 100 µM | HOP-62 > 100 µM | U-251 > 100 µM | OVCAR-3 > 100 µM | OVCAR-8 > 100 µM | SF-539 > 100 µM | SNB-75 > 100 µM | ACHN > 100 µM | A498 > 100 µM | NCI-H522 > 100 µM | TK-10 > 100 µM | SF-268 > 100 µM | KM12 > 100 µM | 786-0 > 100 µM

CCOC(=O)C(C(=O)c1ccccc1-c1ccccc1C(=O)O)=P(c1ccccc1)(c1ccccc1)c1ccccc1
inactive: K562 20 µM | IGROV-1 20.6 µM | HCC 2998 22.3 µM | HOP-62 18.8 µM | U-251 18.3 µM | OVCAR-3 25.1 µM | OVCAR-8 16.9 µM | SF-539 18.9 µM | SNB-75 12.8 µM | ACHN 30 µM | A498 25.4 µM | TK-10 80.4 µM | SF-268 41.6 µM | 786-0 37.8 µM
